Data published in patent EP0081321A1, “2-Aminophenol derivatives” (ONO PHARMACEUTICAL CO., LTD., priority 1981, dated 1983).
pIC50: −log10 of the molar value. Structures can show the parent of a compound that is named as a salt.

How the values were obtained:
mice = assay: acute toxicity by intravenous injection; format: in vivo; details: intravenous injection to tail vein, doses of 30 mg/Kg
Procedure: On the other hand, all extent of the compounds of the present invention were confirmed that their acute toxicities were more than 30 mg/Kg by intravenous injection. Therefore, the compounds of the present invention may be considered to be sufficiently safe and suitable for medical use.

cyclooxygenase = assay: standard assay system using polymorphonuclear leukocytes, HHT or TXB2 production; format: cell-based; details: polymorphonuclear leukocytes from guinea pig (whole cells), [1-14C] arachidonic acid, 37°C, 5 minutes; production of HHT or TXB2; read-out: concentrations for 50% inhibitions on cyclooxygenase
Procedure: Therefore, it is comfirmed that the compound (a) inhibits both enzymes at the same time at a very low concentration, and that the compounds (b), (c) and (d) inhibit 5-lipoxygenase slightly specifically at a very low concentration.
The experiments for screening using polymorphonuclear leukocytes were carried out as follows: The reaction mixture (0.1 ml) containing 5 µmole of potassium phosphase at pH 7.4, 0.1 µmole of calcium chloride, polymorphonuclear leukocytes prepared from guinea pigs (4 x 10^7 cells) and test compound was preincubated for 5 minutes at 37°C. The reaction was started by the addition of [1-^14C] arachidonic acid (2.2 x 10^3 dpm, 1.8 pmole), followed by the incubation at 37°C for 5 minutes. The reaction was terminated by the addition of 0.3 ml of a mixture of ether/methanol/lM citric acid (30/4/1). The organic phase (20 µl) was applied to silica gel plate. Thin layer chromatography was performed to separate each product with solvent system of ether/petroleum ether/acetic acid (85/15/0.1).
Activities of 5-lipoxygenase and cyclooxygenase were calculated from the measurements of the productions of 5-HETE, and 12L-hydroxy-5, 8, 10-[…] acid (i.e. HHT) or thromboxane B2 (i.e. TXB2) respectively. [it has been known that HHT and TXB2 were the last products of the system concerning cyclooxygenase in the arachidonate cascade.] The concentrations for 50% inhibitions on 5-lipoxygenase and on cyclooxygenase were evaluated by using the concentrations of compounds of the present invention required 50% inhibitions on the productions of 5-HETE, and HHT or TXB2.

Row | pIC50 (cyclooxygenase) | SMILES | dead cases in test of acute toxicity (mice)
1 | 6.22 | CCOC(=O)/C=C/c1cc(Sc2ccccc2)cc(N)c1O [Example 1(j), 2-Amino-6-[2-ethoxycarbonyl-(lE)-vinyl]-4-phenylthiophenol hydrochloride] | –
2 | 6.00 | CCOC(=O)/C=C/c1cccc(N)c1O [Example 1, 2-Amino-6-[2-ethoxycarbonyl-(lE)-vinyl]-phenol hydrochloride] | –

Second part, the compound before the results:

Row | SMILES | pIC50 (cyclooxygenase) | dead cases in test of acute toxicity (mice)
3 | CCOC(=O)/C=C/c1cc(Cl)cc(N)c1O.Cl [Example 1(a), 2-Amino-4-chloro-6-[2-ethoxycarbonyl-(1E)-vinyl]phenol hydrochloride] | – | no dead case in 21 cases
4 | CCOC(=O)/C=C/C=C/c1cc(Cl)cc(N)c1O [Example 1(b), 2-Amino-4-chloro-6-[4-ethoxycarbonyl-(lE, 3E)-butadienyl]phenol hydrochloride] | – | no dead case in 21 cases
5 | CCOC(=O)/C=C/c1ccc(O)c(N)c1 [Example 1(d), 2-Amino-4-[2-ethoxycarbonyl-(1E)-vinyl]-phenol hydrochloride] | 5.66 | –
6 | COC(=O)/C=C/c1cc(N)c(O)c(OC)c1.Cl [Example 1(e), 2-Amino-6-methoxy-4-[2-methoxycarbonyl-(1E)-vinyl]phenol hydrochloride] | – | no dead case in 21 cases
7 | Nc1cc(/C=C/C(=O)OCc2ccc(-c3ccccc3)cc2)ccc1O [Example 1(h), 2-Amino-4-[2-[4-biphenylmethbxycarbonyl]-(1E)-vinyl]-phenol] | 5.00 | –
